Values quoted from earlier work as cited in paper PMC6099358 (Diabetes, Obesity & Metabolism, 2018).
Like-named read-outs stand apart in the source and are kept apart here.

Tested on: participants with T1DM
Details: cited from earlier work; for DKA: vs placebo 0; for DKA events, certain / DKA events, potential: 24 weeks

SMILES	DKA (100 mg)	DKA (300 mg)	DKA events, certain (5 mg)	DKA events, potential (5 mg)	DKA events, certain (10 mg)	DKA events, potential (10 mg)
Cc1ccc([C@@H]2O[C@H](CO)[C@@H](O)[C@H](O)[C@H]2O)cc1Cc1ccc(-c2ccc(F)cc2)s1 [canagliflozin]	5 [4.3%] participants [%]	7 [6.0%] participants [%]	–	–	–	–
CCOc1ccc(Cc2cc([C@@H]3O[C@H](CO)[C@@H](O)[C@H](O)[C@H]3O)ccc2Cl)cc1 [dapagliflozin]	–	–	4 [1%] participants [%]	16 [6%] participants [%]	5 [2%] participants [%]	19 [6%] participants [%]
